Assay results as given in PubChem BioAssay AID248 (DTP/NCI, 2004).
“And” between values parts separate entries of the source, which are not always exact repeats. Equal entries are not always repeated. Inconclusive results and toxic doses are left out. Rule as the data show it: active = T/C of 150% or more; inactive = T/C below 125%.

Tested on: L1210 leukemia ip in BDF1 mice, survival T/C
Assay: NCI In Vivo Anticancer Drug Screen. Data for tumor model L1210 Leukemia (intraperitoneal) in B6D2F1 (BDF1) mice
Settings: endpoint: mean survival time, higher = longer survival
Method in brief: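 Mice bearing the transplanted tumor received compound or vehicle. Survival of the treated group was divided by that of the vehicle-treated control group to give the ratio.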

[1] = dose: 100.0 mg/kg/injection, schedule: Q01DX009 (ip), vehicle: Klucel (hydroxypropylcellulose) (HPC)
[2] = dose: 100.0 mg/kg/injection, schedule: Q04DX003 (ip), vehicle: Klucel (hydroxypropylcellulose) (HPC)
[3] = dose: 200.0 mg/kg/injection, schedule: Q01DX009 (ip), vehicle: Klucel (hydroxypropylcellulose) (HPC)
[4] = dose: 200.0 mg/kg/injection, schedule: Q04DX003 (ip), vehicle: Klucel (hydroxypropylcellulose) (HPC)
[5] = dose: 400.0 mg/kg/injection, schedule: Q01DX009 (ip), vehicle: Klucel (hydroxypropylcellulose) (HPC)
[6] = dose: 400.0 mg/kg/injection, schedule: Q04DX003 (ip), vehicle: Klucel (hydroxypropylcellulose) (HPC)
[7] = dose: 50.0 mg/kg/injection, schedule: Q01DX001 (ip), vehicle: Klucel (hydroxypropylcellulose) (HPC)
[8] = dose: 100.0 mg/kg/injection, schedule: Q01DX001 (ip), vehicle: Klucel (hydroxypropylcellulose) (HPC)
[9] = dose: 100.0 mg/kg/injection, schedule: Q01DX001 (ip), vehicle: carboxymethylcellulose (CMC)
[10] = dose: 200.0 mg/kg/injection, schedule: Q01DX001 (ip), vehicle: Klucel (hydroxypropylcellulose) (HPC)
[11] = dose: 200.0 mg/kg/injection, schedule: Q01DX001 (ip), vehicle: carboxymethylcellulose (CMC)
[12] = dose: 400.0 mg/kg/injection, schedule: Q01DX001 (ip), vehicle: carboxymethylcellulose (CMC)
[13] = dose: 100.0 mg/kg/injection, schedule: Q04DX003 (ip), vehicle: saline with Tween-80
[14] = dose: 200.0 mg/kg/injection, schedule: Q04DX003 (ip), vehicle: saline with Tween-80
[15] = dose: 400.0 mg/kg/injection, schedule: Q04DX003 (ip), vehicle: saline with Tween-80
[16] = dose: 50.0 mg/kg/injection, schedule: Q01DX009 (ip), vehicle: saline
[17] = dose: 50.0 mg/kg/injection, schedule: Q04DX003 (ip), vehicle: saline
[18] = dose: 100.0 mg/kg/injection, schedule: Q01DX009 (ip), vehicle: saline
[19] = dose: 100.0 mg/kg/injection, schedule: Q04DX003 (ip), vehicle: saline
[20] = dose: 100.0 mg/kg/injection, schedule: Q01DX001 (ip), vehicle: saline
[21] = dose: 50.0 mg/kg/injection, schedule: Q01DX009 (ip), vehicle: Klucel (hydroxypropylcellulose) (HPC)

Measured: T/C

C=CCN(CC=C)c1ccccc1
inactive: [1] 93 % of control | [2] 108 % of control | [3] 107 % of control | [4] 101 % of control | [5] 112 % of control | [6] 101 % of control

CC1NC(=O)NC1CCCCCC(=O)O (configuration not stated)
inactive: [7] 98 % of control | [8] 98 % of control | [9] 97 % of control | [10] 96 % of control | [11] 98 % of control | [12] 97 % of control

CNC(=O)Oc1cccc(NC(=O)OC(C)(C)C)c1
inactive: [13] 101 % of control | [14] 94 % of control | [15] 95 % of control

COc1cccc(CN(C)C)c1C(O)c1ccccc1 (configuration not stated)
inactive: dose: 50.0 mg/kg/injection, schedule: Q01DX001 (ip), vehicle: carboxymethylcellulose (CMC) 95 % of control | [9] 97 % of control | [11] 106 % of control

O=c1[nH]nc(S(=O)(=O)N2CCOCC2)c(=O)[nH]1
inactive: [9] 98 % of control | [11] 96 % of control | [12] 96 % of control

Cc1c(C)c(CC#N)c(C)c(C)c1CC#N
inactive: [1] 86 % of control | [2] 91 % of control | [3] 88 % of control | [4] 88 % of control | [6] 94 % of control

CCCCCCCCCCCCCCC(S(=O)(=O)CC)S(=O)(=O)CC
inactive: [2] 95 % of control | [4] 100 % of control | [6] 90 % of control

CCCCOB(/C=C/Sc1ccccc1)OCCCC
inactive: dose: 100.0 mg/kg/injection, schedule: Q01DX009 (ip), vehicle: saline sonified 89 % of control | dose: 100.0 mg/kg/injection, schedule: Q04DX003 (ip), vehicle: saline sonified 101 % of control | dose: 200.0 mg/kg/injection, schedule: Q01DX009 (ip), vehicle: saline sonified 87 % of control | dose: 200.0 mg/kg/injection, schedule: Q04DX003 (ip), vehicle: saline sonified 103 % of control | dose: 400.0 mg/kg/injection, schedule: Q01DX009 (ip), vehicle: saline sonified 100 % of control | dose: 400.0 mg/kg/injection, schedule: Q04DX003 (ip), vehicle: saline sonified 95 % of control

S=C(NCc1ccccc1)NC1CCCCC1
inactive: dose: 25.0 mg/kg/injection, schedule: Q01DX009 (ip), vehicle: saline 97 % of control | [16] 100 % of control | [17] 92 % of control | [18] 96 % of control | [19] 102 % of control

COC1C(O)C(CO)OC1n1cc(F)c(=O)[nH]c1=O (configuration not stated)
inactive: [20] 107 % of control | dose: 200.0 mg/kg/injection, schedule: Q01DX001 (ip), vehicle: saline 104 % of control | dose: 400.0 mg/kg/injection, schedule: Q01DX001 (ip), vehicle: saline 111 % of control

O=C1c2ccccc2CC1(Br)Br
inactive: dose: 100.0 mg/kg/injection, schedule: Q04DX003 (ip), vehicle: other 96 % of control | dose: 200.0 mg/kg/injection, schedule: Q04DX003 (ip), vehicle: other 93 % of control

CCCCCCCCCCCCCCCCCCNC(=O)NC(C)(C)C
inactive: dose: 100.0 mg/kg/injection, schedule: Q04DX002 (ip), vehicle: Klucel (hydroxypropylcellulose) (HPC) 111 % of control | dose: 200.0 mg/kg/injection, schedule: Q04DX002 (ip), vehicle: Klucel (hydroxypropylcellulose) (HPC) 100 % of control | dose: 400.0 mg/kg/injection, schedule: Q04DX002 (ip), vehicle: Klucel (hydroxypropylcellulose) (HPC) 111 % of control

OCCNC1c2ccccc2-c2ccccc21
inactive: [21] 100 % of control | [1] 118 % of control | [2] 102 % of control | [3] 99 % of control | [4] 107 % of control

O=C(O)CNC(=O)CNC(=O)C(Br)Cc1ccccc1 (configuration not stated)
inactive: [1] 98 % of control | [13] 101 % of control | [3] 88 % of control | [14] 95 % of control | [15] 100 % of control

CCOC(=O)c1nn2c(C)nnc2s1
inactive: [9] 98 % of control | [11] 96 % of control | [12] 98 % of control

Cc1ccccc1Oc1ccccc1N
inactive: dose: 100.0 mg/kg/injection, schedule: Q01DX009 (sc), vehicle: olive oil, sesame oil, peanut oil 101 % of control | dose: 100.0 mg/kg/injection, schedule: Q04DX003 (sc), vehicle: olive oil, sesame oil, peanut oil 110 % of control | dose: 200.0 mg/kg/injection, schedule: Q01DX009 (sc), vehicle: olive oil, sesame oil, peanut oil 101 % of control | dose: 200.0 mg/kg/injection, schedule: Q04DX003 (sc), vehicle: olive oil, sesame oil, peanut oil 94 % of control | dose: 400.0 mg/kg/injection, schedule: Q01DX009 (sc), vehicle: olive oil, sesame oil, peanut oil 97 % of control | dose: 400.0 mg/kg/injection, schedule: Q04DX003 (sc), vehicle: olive oil, sesame oil, peanut oil 116 % of control

N=C(N)c1cccc(NC(=O)c2cccc(C(=O)Nc3cccc(C(=N)N)c3)c2)c1
inactive: dose: 15.0 mg/kg/injection, schedule: Q01DX Z (ip), vehicle: saline 95 % of control | dose: 30.0 mg/kg/injection, schedule: Q01DX Z (ip), vehicle: saline 98 % of control | dose: 60.0 mg/kg/injection, schedule: Q01DX Z (ip), vehicle: saline 98 % of control | dose: 120.0 mg/kg/injection, schedule: Q01DX Z (ip), vehicle: saline 93 % of control | dose: 125.0 mg/kg/injection, schedule: Q01DX Z (ip), vehicle: water 96 % of control | dose: 250.0 mg/kg/injection, schedule: Q01DX Z (ip), vehicle: water 98 % of control | dose: 500.0 mg/kg/injection, schedule: Q01DX Z (ip), vehicle: water 104 % of control

COC1CC(OC2OC(CO)C(O)C(O)C2O)/C(=C\C#N)C(O)C1OC (configuration not stated)
inactive: [16] 106 % of control | [17] 103 % of control | [18] 103 % of control | [19] 100 % of control | dose: 200.0 mg/kg/injection, schedule: Q01DX009 (ip), vehicle: saline 101 % of control | dose: 200.0 mg/kg/injection, schedule: Q04DX003 (ip), vehicle: saline 101 % of control

CCOc1nc(N)nc2n[nH]nc12
inactive: dose: 82.0 mg/kg/injection, schedule: Q01DX Z (ip), vehicle: carboxymethylcellulose (CMC) 93 % of control | dose: 175.0 mg/kg/injection, schedule: Q01DX Z (ip), vehicle: carboxymethylcellulose (CMC) 112 % of control | dose: 262.0 mg/kg/injection, schedule: Q01DX Z (ip), vehicle: carboxymethylcellulose (CMC) 95 % of control

S=c1cc(-c2ccccc2)ss1
inactive: dose: 100.0 mg/kg/injection, schedule: Q01DX009 (ip), vehicle: saline with Tween-80 98 % of control | [13] 93 % of control and 102 % of control | dose: 200.0 mg/kg/injection, schedule: Q01DX009 (ip), vehicle: saline with Tween-80 89 % of control | [14] 91 % of control and 100 % of control | dose: 400.0 mg/kg/injection, schedule: Q01DX009 (ip), vehicle: saline with Tween-80 96 % of control | [15] 96 % of control and 91 % of control

O=C(O)c1ccccc1C(=O)Nc1cccc(C(F)(F)F)c1
inactive: [21] 101 % of control | [1] 101 % of control | [3] 99 % of control

CC(C)(C)C1CC(C(F)(F)F)(C(F)(F)F)OP(=O)(N2CCCCC2)O1 (configuration not stated)
inactive: [7] 98 % of control | [8] 100 % of control | [10] 96 % of control

CCOC(=O)CCc1c(C)c2cc(C(C)=O)c(O)cc2oc1=O
inactive: [9] 89 % of control | [11] 94 % of control | [12] 103 % of control

COc1ccccc1NC(=O)Nc1cc(C)ccc1C
inactive: [1] 88 % of control | [2] 90 % of control | [3] 92 % of control | [4] 95 % of control | [5] 88 % of control | [6] 88 % of control

Cc1c(F)c(Br)c([N+](=O)[O-])c(C)c1[N+](=O)[O-]
inactive: [8] 96 % of control | [10] 102 % of control | dose: 400.0 mg/kg/injection, schedule: Q01DX001 (ip), vehicle: Klucel (hydroxypropylcellulose) (HPC) 102 % of control

COc1ccc(N=CN(C)C)cc1
inactive: dose: 50.0 mg/kg/injection, schedule: Q01DX001 (ip), vehicle: saline 100 % of control | [20] 96 % of control

O=C1c2ccccc2-c2cc(Br)c(NC(=O)C(Cl)Cl)cc21
inactive: [9] 115 % of control | [11] 98 % of control | [12] 98 % of control
